# According to PMC6934184, “Selective DNA-PKcs inhibition extends the therapeutic index of localized radiotherapy and chemotherapy” (The Journal of Clinical Investigation, 2019):
# Target: T1, ACVRL1 (ALK1) (Homo sapiens, UniProt P37023)
# T1 construct: purchased Thermo Fisher Scientific (Life Technologies) SelectScreen
# Experiment: SelectScreen LanthaScreen
# Assay type: binding
# Conditions: read-out: % displacement
# Method in brief: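 Percent values come from Thermo SelectScreen profiling of NU5455, combining activity and binding assays. CSF1R was run in Z'LYTE format at Km app ATP, and CAMK1 in Adapta format with ATP listed at 10.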
# T1 sequence (P37023 22-503): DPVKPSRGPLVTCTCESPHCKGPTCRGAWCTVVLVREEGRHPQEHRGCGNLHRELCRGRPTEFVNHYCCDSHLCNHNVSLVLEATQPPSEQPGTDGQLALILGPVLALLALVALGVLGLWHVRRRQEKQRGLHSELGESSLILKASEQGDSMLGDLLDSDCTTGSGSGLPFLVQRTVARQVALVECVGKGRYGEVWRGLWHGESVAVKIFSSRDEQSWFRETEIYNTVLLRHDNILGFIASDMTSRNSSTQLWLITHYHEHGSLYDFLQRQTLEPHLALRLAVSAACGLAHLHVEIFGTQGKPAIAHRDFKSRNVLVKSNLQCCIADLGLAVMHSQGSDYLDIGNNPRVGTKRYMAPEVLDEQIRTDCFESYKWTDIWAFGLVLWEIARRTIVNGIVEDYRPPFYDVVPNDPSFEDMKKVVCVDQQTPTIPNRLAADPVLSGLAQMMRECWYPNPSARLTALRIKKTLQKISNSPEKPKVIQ
smiles,measurement,value
CN(C(=O)CN1CCOCC1)c1ccc2sc3c(-c4cccc5c(=O)cc(N6CC7CCC(C6)O7)oc45)cccc3c2c1 [NU5455],inhibition at 1 µM,2.3%
